Drawing on ChEMBL document CHEMBL6103573, “Discovery of novel thienopyridine indole derivatives as inhibitors of tubulin polymerization targeting the colchicine-binding site with potent anticancer activities” (Eur J Med Chem, 2025), this text covers inhibition, IC50 and inhibition in vivo for 32 compounds.

Structures are written as SMILES.

One assay deals with Tubulin (Homo sapiens) (UniProt P68371+Q9H4B7+P0DPH7+P68366+Q13509+Q71U36+P04350+Q3ZCM7+P07437+P68363+Q9BQE3+Q6PEY2+Q13885+Q9BVA1+Q9BUF5). As to the kind of experiment: Inhibition of tubulin (unknown origin) polymerization assessed as decrease in fluorescence intensity at 3 micromol/L in the presence of GTP by fluorescence microplate reader. The settings on record: dose 3.0 µmol/L. Type of assay: protein-complex assay.

The next assay concerns HCT-116. As to the kind of experiment: Antiproliferative activity against human HCT-116 cells assessed as inhibition of cell proliferation incubated for 48 hrs by MTT assay. The class given is functional, cell-based. Conditions: HCT-116, 48 h; call rule not given here.
Another assay deals with KYSE-450. Briefly: Antiproliferative activity against human KYSE-450 cells assessed as inhibition of cell proliferation incubated for 48 hrs by MTT assay. Conditions: KYSE-450, 48 h. Type of assay: functional, cell-based.
For assay [1], the system named is MGC-803. As to the kind of experiment: Antiproliferative activity against human MGC-803 cells assessed as inhibition of cell proliferation incubated for 48 hrs by MTT assay. The settings on record: MGC-803, 48 h. Type of assay: functional, cell-based.
In assay [2] the test system is MGC-803. As to the kind of experiment: Antitumor activity against human MGC-803 cells xenografted in female BALB/c-nu nude mouse assessed as tumor inhibition rate at 20 mg/kg, ip administrated every other day for 11 times and measured after 21 days relative to control. The class given is functional. Conditions: MGC-803, 504 h, time 21 day, read-out: TGI.

As for `CC(=O)O[C@H]1C(=O)[C@@]2(C)[C@H]([C@H](OC(=O)c3ccccc3)[C@]3(O)C[C@H](OC(=O)[C@H](O)[C@@H](NC(=O)c4ccccc4)c4ccccc4)C(C)=C1C3(C)C)[C@]1(OC(C)=O)CO[C@@H]1C[C@@H]2O`, the inhibition result on Tubulin (Homo sapiens) was “Not active; Increase In Fluorescence Intensity Observed”.
With `CN(c1ccc2c(ccn2C)c1)c1ncnc2ccsc12`, the IC50 in the assay with HCT-116 turned out to be 17.6 nM; in the assay on KYSE-450, 34.6 nM; in the assay on MGC-803 [1] it was 8.94 nM.
The like results for `CN(c1ccc2c(ccn2C(=O)OC(C)(C)C)c1)c1nc(Cl)nc2sccc12` were, in that order, 282 nM, 152 nM and 253 nM.
With `CC1CCN(c2nc(N(C)c3ccc4c(ccn4C)c3)c3ccsc3n2)CC1`, the IC50 was found to be 6.21 nM with HCT-116, 9.17 nM with KYSE-450 and 8.12 nM with MGC-803 [1].
The like results for `CN(c1ccc2c(ccn2C)c1)c1nc(N2CCOCC2)nc2sccc12` were, in that order, 60.2 nM, 56.4 nM and 70.7 nM.
`COc1ccc(/C=C\c2cc(OC)c(OC)c(OC)c2)cc1O` [COMBRETASTATIN A4]: the IC50 in the assay with HCT-116 stood at 7.38 nM; with KYSE-450, 5.11 nM; with MGC-803 [1], 6.29 nM. Also, in the assay with MGC-803 [2], the inhibition in vivo at 20 mg/kg amounted to 27.1%.
Turning to `CN(c1ccc2c(ccn2C)c1)c1nc(Cl)nc2ccsc12`, the figures for the IC50 in the assay with HCT-116, in the assay with KYSE-450 and in the assay with MGC-803 [1] were 3.17 nM, 16.1 nM and 4.18 nM, respectively.
Turning to `CN(c1ccc2c(ccn2C)c1)c1nc(N2CCCCC2)nc2sccc12`, the figures for the IC50 with HCT-116, with KYSE-450 and in the assay on MGC-803 [1] were 18.2 nM, 13.2 nM and 14.8 nM, respectively.
The like results for `CN(c1ccc2c(ccn2C)c1)c1nc(N2CCC(F)CC2)nc2sccc12` were, in that order, 17.7 nM, 20.7 nM and 12.9 nM.
The like results for `Cn1ccc2cc(Nc3ncnc4sccc34)ccc21` were, in that order, above 5000 nM, above 5000 nM and above 5000 nM.
Take `Cn1ccc2cc(Nc3nc(Cl)nc4sccc34)ccc21`: the IC50 with HCT-116, with KYSE-450 and with MGC-803 [1] was above 5000 nM each time.
With `CN(c1ccc2c(ccn2C)c1)c1nc(N2CCSCC2)nc2sccc12`, the IC50 with HCT-116 worked out at 129 nM; with KYSE-450, 289 nM; in the assay on MGC-803 [1] it was 113 nM.
Turning to `COc1cc2c(c(OC)c1OC)-c1ccc(OC)c(=O)cc1[C@@H](NC(C)=O)CC2` [COLCHICINE], the IC50 was found to be 49.1 nM in the assay with HCT-116, 58.7 nM with KYSE-450 and 44.1 nM with MGC-803 [1].
The like results for `CN(c1ccc2[nH]ccc2c1)c1nc(Cl)nc2sccc12` were, in that order, 7.28 nM, 5.12 nM and 4.23 nM.
For `CN(c1ccc2c(ccn2C)c1)c1nc(N2CCC(O)CC2)nc2sccc12`, the IC50 was 19.6 nM in the assay with HCT-116, 30.1 nM in the assay with KYSE-450 and 20.6 nM in the assay with MGC-803 [1].
For `CN1CCN(c2nc(N(C)c3ccc4c(ccn4C)c3)c3ccsc3n2)CC1`, in that order: 441 nM, 389 nM and 219 nM.
The like results for `CN(c1ccc2c(ccn2C)c1)c1nc(Cl)nc2sccc12` were, in that order, 2.79 nM, 3.28 nM and 2.07 nM.
For `CCN1CCN(c2nc(N(C)c3ccc4c(ccn4C)c3)c3ccsc3n2)CC1`, in that order: 406 nM, 402 nM and 288 nM.
As for `CCCN(c1ccc2c(ccn2C)c1)c1nc(Cl)nc2sccc12`, the IC50 turned out to be 125 nM in the assay with HCT-116, 122 nM with KYSE-450 and 89.2 nM in the assay on MGC-803 [1].
Consider `CN(c1ccc2c(ccn2Cc2ccccc2)c1)c1nc(Cl)nc2sccc12`, for which the IC50 with HCT-116 was determined as 831 nM; in the assay on KYSE-450, 921 nM; in the assay on MGC-803 [1] it was 893 nM.
On to `CN(c1ccc2c(ccn2C)c1)c1nc(N2CCC2)nc2sccc12`, for which the results for the IC50 in the assay on HCT-116, with KYSE-450 and with MGC-803 [1] were 18.2 nM, 16.1 nM and 12.3 nM, respectively.
For `CN(c1ccc2c(ccn2C)c1)c1nc(N2CCN(C(=O)OC(C)(C)C)CC2)nc2sccc12`, in that order: 682 nM, 597 nM and 589 nM.
For `CC(=O)N1CCN(c2nc(N(C)c3ccc4c(ccn4C)c3)c3ccsc3n2)CC1`, in that order: 487 nM, 413 nM and 308 nM.
For `CN(c1ccc2c(ccn2C)c1)c1ncnc2sccc12`, in that order: 5.12 nM, 25.1 nM and 5.32 nM.
Regarding `CCN(c1ccc2c(ccn2C)c1)c1nc(Cl)nc2sccc12`, the IC50 in the assay with HCT-116 is 8.28 nM; in the assay with KYSE-450, 7.77 nM; with MGC-803 [1], 3.67 nM.
As to `CCn1ccc2cc(N(C)c3nc(Cl)nc4sccc34)ccc21`, the IC50 stood at 54.2 nM with HCT-116, 39.8 nM in the assay with KYSE-450 and 40.2 nM in the assay on MGC-803 [1].
For `Cn1ccc2cc(Nc3ncnc4ccsc34)ccc21`, the IC50 in the assay on HCT-116, with KYSE-450 and in the assay with MGC-803 [1] was above 5000 nM each time.
For the compound `CC(C)(C)OC(=O)n1ccc2cc(Nc3nc(Cl)nc4sccc34)ccc21`, the IC50 in the assay with HCT-116, in the assay on KYSE-450 and in the assay with MGC-803 [1] was above 5000 nM in each case.
Consider `COC1CCN(c2nc(N(C)c3ccc4c(ccn4C)c3)c3ccsc3n2)CC1`, for which the IC50 amounted to 6.77 nM with HCT-116, 8.33 nM with KYSE-450 and 6.81 nM with MGC-803 [1].
Take `CN(c1ccc2c(ccn2C)c1)c1nc(N2CCC(C(=O)OC(C)(C)C)CC2)nc2sccc12`: the IC50 with HCT-116 amounted to 388 nM; in the assay with KYSE-450, 422 nM; in the assay on MGC-803 [1] it was 337 nM.
For `CN(c1ccc2c(ccn2C)c1)c1nc(N2CCC(Cl)CC2)nc2sccc12`, in that order: 29.3 nM, 25.6 nM and 18.3 nM.
As to `Cn1ccc2cc(Nc3nc(Cl)nc4ccsc34)ccc21`, the IC50 in the assay on HCT-116, with KYSE-450 and in the assay on MGC-803 [1] was above 5000 nM each time.
